Key:
[1] = test system: female Cynomolgus monkeys; test: Object retrieval (OR) detour task; assay type: in vivo, Cynomolgus macaques (Macaca fascicularis)
From the text: A total of n = 8 female Cynomolgus monkeys aged 4–6 years were trained in the OR task and were used for these studies, following a cross-over design. Animals were trained to ensure adequate and stable performance during the dosing studies. Animals were individually housed prior to the initiation of the study. Animals were habituated to the oral gavage method using positive reinforcement techniques for a minimum of 2 weeks prior to the initiation of OR testing to mitigate any adverse impact on behaviour. To ensure accurate dosing each individual was momentarily restrained in a ‘standing’ type primate chair to allow easy and gentle passage of the gavage tube. The oral doses were administered in a dose volume of 1.0 mL/Kg which was followed with 5 mL of purified water to ensure no residual compound formulation remained in the gavage tube. During dose habituation and the study the same study personnel administered the compounds and thus a non-stressful, familiar routine for the animals was achieved.
The OR task, [55] requires the subject to retrieve a food reward from a clear acrylic box (dimensions = 5×5×5 cm) with one open side which is positioned in front of the subject on a metal holder fixed to the outside of the home cage. The cube is presented to the subject with the open side facing left, right, or toward the monkey in a randomised set list of easy versus difficult trials. Food rewards (raisins or cubes of fruit pieces 1–2 cm^2) were placed on the outer edge, inner edge, line of sight (all easy), or deep within the box (difficult). Each test session consisted of 17 trials, with an initial Easy phase of 3 easy trials followed by a Random phase of 9 trials (4 difficult and 5 easy, presented randomly for each session), followed by a Difficult phase of 4 difficult trials and finally one final Easy Trial (Figure 2A). The final easy trial was included for reward purposes and although the number of attempts was recorded the data were not used for analysis. For successive test sessions, the subject was presented with the trials in an order exactly the reverse of the previous session (previous left side exposure became right side exposure and vice-versa). Individual trials within one OR session were terminated if there were no reaches or successful retrieval of the reward within 2 minutes by the subject. The acrylic box was cleaned between trials to minimize cues which may influence subsequent task performance through easier identification of the cube entrance.
Animals were habituated to the metal frame prior to introducing the OR cube. During training, the animals were exposed to the OR trials as depicted in Figure 2A for 4 occasions (twice a week- OR trial # T1-T4 – data not shown). Importantly, during this period of training, all animals acquired the rewards even after an incorrect first reach. OR evaluations were then subsequently conducted once per week to discourage learning and thus ensure no performance shift during the pharmacology study (Figure 2B). […]
Baseline performance was targeted to be an average, stable performance of >50% correct responses in the easy tasks, with less than 40% correct responses in the difficult tasks (Figure 2B). All animals evaluated during this phase met these criteria by the end of the training session, with the exception of one animal, which was a baseline ‘high performer’ on difficult trials (Animal 3939). […]

[2] = test system: female Cynomolgus monkeys; test: Clinical observations (retching, emesis, salivation) during OR and PK studies; assay type: in vivo, Cynomolgus macaques (Macaca fascicularis); settings: 0.03 mg/kg IM; one animal (5B09), 20 minutes post dose
Description: • Week 1: Animals were habituated to intramuscular injections daily using the ‘rolipram’ vehicle formulation (10% solutol (w/v), 90% saline vehicle in a 0.1 mL/Kg dose volume) Monday through Friday, and a single baseline OR trial evaluation was performed on Wednesday (OR4) (Figure 2A). Animals were dosed with vehicle 30 minutes prior to this behavioural evaluation. • Weeks 2 to 5: Evaluation of rolipram in OR task. Following the stable baseline performance establishment (OR1 – 4), all animals were administered the 3 doses of rolipram (0.003, 0.01 and 0.03 mg/Kg) or vehicle intramuscularly 30 minutes before evaluation on the OR task, every Wednesday through Weeks 2–5 (OR5-8). All animals were dosed with vehicle on the preceding Monday and Tuesday to keep them habituated to the injections and avoid any Pavlovian conditioning to any pro-emetic effects of treatment, although no OR testing was carried out on those days. Treatment was administered at approximately the same time each day and administered via the intramuscular route at a volume of 0.1 mL/kg. […]
Animals were closely monitored for the duration of the study, and were videotaped during task performance. Body weights were monitored weekly. Clinical observations were recorded prior to dose administration and after the completion of each OR task. […]

NHPs = settings: cited from earlier work
[3] = repeat measures ANOVA, dose group as factor

Compound: COc1ccc(C2CNC(=O)C2)cc1OC1CCCC1 (stereo not drawn) [rolipram, Rolipram]
- mean percent correct first reaches, difficult trials (effect vs vehicle) ([1]; 0.01 mg/kg IM): significance was not observed
- mean percent correct first reaches, difficult trials ([1]; 0.03 mg/Kg IM, 30 min before OR, mean ± SEM, vehicle 22±8%): 42±8%
- mean percent correct first reach, easy level trials (effect of dosing) [1, 3]: No significant improvement
- number of barrier reaches, difficult trials (effect of dosing) [1, 3]: No significant change
- total number of reaches, difficult trials (effect of dosing) [1, 3]: No significant change
- adverse reactions [2]: Retching and severe salivation
- retching (NHPs; 0.05 mg/kg IM, separate study, ref Maccine, personal communication): all animals retching
- emesis (NHPs; 0.06 mg/kg): emesis
- emesis (monkeys affected) (NHPs; 0.1 mg/kg): 12 of 14

From PMC4106781, “Efficacy of Selective PDE4D Negative Allosteric Modulators in the Object Retrieval Task in Female Cynomolgus Monkeys (Macaca fascicularis)” (PLoS ONE, 2014)
